Results from ChEMBL document CHEMBL5465560, “Selectivity Literature for EUbOPEN Chemogenomic Library” (2024).
One block for each molecule: values may come before it.

How the values were obtained:
[1] = target: Glycogen synthase kinase-3 alpha (Homo sapiens, UniProt P49840); assay: Selectivity interaction (Rxn Biology Kinase assay) EUB0001632a GSK3A; details: at 10 µM
[2] = target: Transcription initiation factor TFIID subunit 1-like (Homo sapiens) (UniProt Q8IZX4); assay: Selectivity interaction (Human bromodomain panel (DSF assay)) EUB0000233b TAF1L
[3] = target: T1, Serine/threonine-protein kinase 36 (Homo sapiens) (UniProt Q9NRP7); assay: Selectivity interaction (KinomeScan (DiscoverX)) EUB0000607a STK36; details: at 10 µM
T1 sequence (whole entry): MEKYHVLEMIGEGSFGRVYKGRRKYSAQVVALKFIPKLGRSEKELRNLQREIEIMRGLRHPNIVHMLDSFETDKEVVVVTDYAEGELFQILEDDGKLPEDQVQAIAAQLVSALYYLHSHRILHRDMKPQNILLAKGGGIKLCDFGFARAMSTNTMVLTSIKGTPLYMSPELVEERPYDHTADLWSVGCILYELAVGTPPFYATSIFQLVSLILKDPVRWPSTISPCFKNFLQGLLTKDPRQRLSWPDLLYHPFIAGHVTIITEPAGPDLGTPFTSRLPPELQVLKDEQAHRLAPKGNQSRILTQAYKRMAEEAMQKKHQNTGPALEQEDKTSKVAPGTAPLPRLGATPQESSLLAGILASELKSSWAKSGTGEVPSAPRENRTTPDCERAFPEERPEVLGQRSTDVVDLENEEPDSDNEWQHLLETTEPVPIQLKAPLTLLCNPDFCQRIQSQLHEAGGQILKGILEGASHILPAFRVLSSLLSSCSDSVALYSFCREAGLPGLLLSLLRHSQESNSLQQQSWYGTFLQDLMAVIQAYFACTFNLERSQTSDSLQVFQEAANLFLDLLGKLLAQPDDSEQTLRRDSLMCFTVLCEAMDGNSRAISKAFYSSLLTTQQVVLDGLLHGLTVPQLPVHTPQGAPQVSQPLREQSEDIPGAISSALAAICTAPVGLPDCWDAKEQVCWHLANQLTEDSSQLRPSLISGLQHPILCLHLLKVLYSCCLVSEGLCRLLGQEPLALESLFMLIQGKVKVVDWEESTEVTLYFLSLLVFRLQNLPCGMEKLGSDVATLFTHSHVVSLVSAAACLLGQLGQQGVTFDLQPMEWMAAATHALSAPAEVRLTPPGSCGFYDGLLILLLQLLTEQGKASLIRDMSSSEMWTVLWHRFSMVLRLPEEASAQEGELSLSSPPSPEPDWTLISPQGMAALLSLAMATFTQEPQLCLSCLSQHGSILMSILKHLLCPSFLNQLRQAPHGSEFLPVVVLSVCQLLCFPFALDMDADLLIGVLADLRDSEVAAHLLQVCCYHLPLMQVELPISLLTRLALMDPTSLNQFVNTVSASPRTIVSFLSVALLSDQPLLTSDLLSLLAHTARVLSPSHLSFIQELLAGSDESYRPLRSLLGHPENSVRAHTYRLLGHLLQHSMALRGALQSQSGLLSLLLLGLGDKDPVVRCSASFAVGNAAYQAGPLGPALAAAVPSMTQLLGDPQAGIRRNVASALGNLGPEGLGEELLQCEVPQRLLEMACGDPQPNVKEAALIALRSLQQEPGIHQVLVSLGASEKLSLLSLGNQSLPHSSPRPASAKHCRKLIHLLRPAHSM

[4] = target: Calcium/calmodulin-dependent protein kinase type II subunit beta (Homo sapiens) (UniProt Q13554); assay: Selectivity interaction (ActivX KiNativ screen (kinase selectivity in THP-1 cell lysates)) EUB0000639a CAMK2B; assay type: subcellular; details: lysate
Chain of Calcium/calmodulin-dependent protein kinase type II subunit beta (Homo sapiens) (Q13554 whole entry, canonical isoform): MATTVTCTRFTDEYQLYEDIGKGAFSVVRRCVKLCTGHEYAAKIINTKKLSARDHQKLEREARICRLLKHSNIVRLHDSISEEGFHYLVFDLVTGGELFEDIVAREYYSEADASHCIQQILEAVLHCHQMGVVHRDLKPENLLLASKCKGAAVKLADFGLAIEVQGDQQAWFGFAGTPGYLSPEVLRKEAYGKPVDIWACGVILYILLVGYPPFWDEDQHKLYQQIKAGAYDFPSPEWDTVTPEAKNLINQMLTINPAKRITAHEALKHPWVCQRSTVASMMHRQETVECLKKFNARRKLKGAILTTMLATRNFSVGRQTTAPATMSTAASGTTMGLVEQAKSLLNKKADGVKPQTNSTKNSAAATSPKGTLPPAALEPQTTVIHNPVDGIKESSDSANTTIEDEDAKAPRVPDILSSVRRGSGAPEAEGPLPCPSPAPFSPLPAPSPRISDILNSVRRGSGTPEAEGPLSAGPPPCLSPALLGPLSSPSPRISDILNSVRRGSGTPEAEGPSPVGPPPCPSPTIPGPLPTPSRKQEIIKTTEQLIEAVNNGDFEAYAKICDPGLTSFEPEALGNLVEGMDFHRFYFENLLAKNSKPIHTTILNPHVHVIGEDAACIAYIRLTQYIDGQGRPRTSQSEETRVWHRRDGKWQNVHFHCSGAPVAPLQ

[5] = target: Casein kinase I isoform alpha (Homo sapiens, UniProt P48729); assay: Selectivity interaction (ActivX KiNativ screen (kinase selectivity in THP-1 cell lysates)) EUB0000639a CSNK1A1; assay type: subcellular; details: lysate, at 0.2 µM
[6] = system: Phosphatidylinositol 4,5-bisphosphate 3-kinase catalytic subunit alpha isoform (Homo sapiens), P42336 [M1043I]; details: at 10 µM
Chain of Phosphatidylinositol 4,5-bisphosphate 3-kinase catalytic subunit alpha isoform (Homo sapiens), P42336 [M1043I] (P42336 whole entry M1043I, canonical isoform): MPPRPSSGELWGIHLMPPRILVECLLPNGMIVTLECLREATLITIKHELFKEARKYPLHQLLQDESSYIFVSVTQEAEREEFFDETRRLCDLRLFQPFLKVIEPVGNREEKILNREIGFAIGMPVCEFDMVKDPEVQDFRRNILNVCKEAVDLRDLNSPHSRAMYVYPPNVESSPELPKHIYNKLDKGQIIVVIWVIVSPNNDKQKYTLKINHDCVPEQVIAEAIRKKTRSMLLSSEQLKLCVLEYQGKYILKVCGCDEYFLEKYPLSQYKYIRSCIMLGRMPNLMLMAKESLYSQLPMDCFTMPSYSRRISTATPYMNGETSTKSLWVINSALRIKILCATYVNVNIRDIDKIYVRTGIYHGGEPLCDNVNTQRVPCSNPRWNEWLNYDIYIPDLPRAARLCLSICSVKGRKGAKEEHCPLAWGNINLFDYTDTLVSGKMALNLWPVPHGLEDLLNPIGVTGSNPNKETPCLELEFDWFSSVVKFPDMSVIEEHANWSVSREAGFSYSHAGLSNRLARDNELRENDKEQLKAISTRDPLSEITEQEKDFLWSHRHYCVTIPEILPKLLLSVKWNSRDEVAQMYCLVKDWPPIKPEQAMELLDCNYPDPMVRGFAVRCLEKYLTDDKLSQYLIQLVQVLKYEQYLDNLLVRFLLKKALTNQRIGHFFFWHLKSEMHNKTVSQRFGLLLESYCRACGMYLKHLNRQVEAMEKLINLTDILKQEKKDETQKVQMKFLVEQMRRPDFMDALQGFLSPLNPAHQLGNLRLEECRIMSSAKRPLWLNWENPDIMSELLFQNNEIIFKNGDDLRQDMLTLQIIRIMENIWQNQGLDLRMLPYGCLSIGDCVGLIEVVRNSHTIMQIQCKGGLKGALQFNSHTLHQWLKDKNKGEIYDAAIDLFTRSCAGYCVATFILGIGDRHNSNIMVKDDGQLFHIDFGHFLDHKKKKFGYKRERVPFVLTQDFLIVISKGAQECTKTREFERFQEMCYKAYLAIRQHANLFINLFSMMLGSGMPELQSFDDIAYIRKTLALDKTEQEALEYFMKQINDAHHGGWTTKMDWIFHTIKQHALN

[7] = target: MAP kinase-interacting serine/threonine-protein kinase 2 (Homo sapiens, UniProt Q9HBH9); assay: Selectivity interaction (KinomeScan (DiscoverX)) EUB0001049a MKNK2; details: at 1 µM
Chain of MAP kinase-interacting serine/threonine-protein kinase 2 (Q9HBH9 whole entry, looked up): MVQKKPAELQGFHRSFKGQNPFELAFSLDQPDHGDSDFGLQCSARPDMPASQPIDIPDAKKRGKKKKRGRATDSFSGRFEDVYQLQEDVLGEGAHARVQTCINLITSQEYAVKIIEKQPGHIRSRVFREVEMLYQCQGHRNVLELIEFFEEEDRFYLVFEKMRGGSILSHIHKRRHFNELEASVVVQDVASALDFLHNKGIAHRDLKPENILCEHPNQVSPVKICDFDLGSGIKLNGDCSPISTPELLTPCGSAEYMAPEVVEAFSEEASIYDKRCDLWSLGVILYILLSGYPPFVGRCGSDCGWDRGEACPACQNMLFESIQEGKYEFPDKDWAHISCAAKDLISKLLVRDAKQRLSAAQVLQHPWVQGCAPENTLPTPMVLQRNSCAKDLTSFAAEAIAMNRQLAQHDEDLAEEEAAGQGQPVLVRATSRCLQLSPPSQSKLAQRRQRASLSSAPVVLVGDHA

[8] = target: T2, Serine/threonine-protein kinase Nek9 (Homo sapiens) (UniProt Q8TD19); assay: Selectivity interaction (Ambit KINOMEscan and KiNATiv profiling in Jurkat cells) EUB0000090b NEK9; assay type: cell-based; details: at 1 µM
T2 sequence (whole entry): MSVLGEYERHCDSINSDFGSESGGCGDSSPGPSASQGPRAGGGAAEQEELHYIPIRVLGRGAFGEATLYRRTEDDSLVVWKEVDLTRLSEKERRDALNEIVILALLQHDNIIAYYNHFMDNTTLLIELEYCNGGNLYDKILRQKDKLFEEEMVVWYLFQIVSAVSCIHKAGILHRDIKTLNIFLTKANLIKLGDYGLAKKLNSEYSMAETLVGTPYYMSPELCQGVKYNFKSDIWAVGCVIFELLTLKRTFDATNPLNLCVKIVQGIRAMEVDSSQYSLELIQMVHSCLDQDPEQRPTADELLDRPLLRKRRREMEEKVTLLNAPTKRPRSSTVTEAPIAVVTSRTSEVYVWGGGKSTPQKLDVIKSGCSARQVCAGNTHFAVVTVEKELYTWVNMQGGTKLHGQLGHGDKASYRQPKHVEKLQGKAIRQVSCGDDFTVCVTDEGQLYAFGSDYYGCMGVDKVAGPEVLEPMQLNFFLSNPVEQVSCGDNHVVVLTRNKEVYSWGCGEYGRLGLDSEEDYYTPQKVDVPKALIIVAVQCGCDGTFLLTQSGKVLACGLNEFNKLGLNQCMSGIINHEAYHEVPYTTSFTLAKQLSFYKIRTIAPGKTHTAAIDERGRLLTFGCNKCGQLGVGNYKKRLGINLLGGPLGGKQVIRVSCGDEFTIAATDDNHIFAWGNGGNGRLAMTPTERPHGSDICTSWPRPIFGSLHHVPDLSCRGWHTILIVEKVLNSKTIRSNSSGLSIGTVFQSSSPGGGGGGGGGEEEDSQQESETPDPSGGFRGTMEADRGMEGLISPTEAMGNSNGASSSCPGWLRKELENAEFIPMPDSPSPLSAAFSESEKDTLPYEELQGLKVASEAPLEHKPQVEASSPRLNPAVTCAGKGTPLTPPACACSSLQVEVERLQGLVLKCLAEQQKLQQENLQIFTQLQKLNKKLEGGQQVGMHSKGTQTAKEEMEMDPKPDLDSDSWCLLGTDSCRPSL

[9] = target: Non-receptor tyrosine-protein kinase TYK2 (Homo sapiens, UniProt P29597); assay: Selectivity interaction (KinomeScan (DiscoverX)) EUB0000618a TYK2; details: at 10 µM
[10] = target: Serine/threonine-protein kinase WNK2 (Homo sapiens) (UniProt Q9Y3S1); assay: Selectivity interaction (ActivX KiNativ screen (ex vivo kinase selectivity in human PBMCs)) EUB0001619a WNK2; assay type: cell-based; details: PBMC, at 1 µM
Chain of Serine/threonine-protein kinase WNK2 (Homo sapiens) (Q9Y3S1 whole entry): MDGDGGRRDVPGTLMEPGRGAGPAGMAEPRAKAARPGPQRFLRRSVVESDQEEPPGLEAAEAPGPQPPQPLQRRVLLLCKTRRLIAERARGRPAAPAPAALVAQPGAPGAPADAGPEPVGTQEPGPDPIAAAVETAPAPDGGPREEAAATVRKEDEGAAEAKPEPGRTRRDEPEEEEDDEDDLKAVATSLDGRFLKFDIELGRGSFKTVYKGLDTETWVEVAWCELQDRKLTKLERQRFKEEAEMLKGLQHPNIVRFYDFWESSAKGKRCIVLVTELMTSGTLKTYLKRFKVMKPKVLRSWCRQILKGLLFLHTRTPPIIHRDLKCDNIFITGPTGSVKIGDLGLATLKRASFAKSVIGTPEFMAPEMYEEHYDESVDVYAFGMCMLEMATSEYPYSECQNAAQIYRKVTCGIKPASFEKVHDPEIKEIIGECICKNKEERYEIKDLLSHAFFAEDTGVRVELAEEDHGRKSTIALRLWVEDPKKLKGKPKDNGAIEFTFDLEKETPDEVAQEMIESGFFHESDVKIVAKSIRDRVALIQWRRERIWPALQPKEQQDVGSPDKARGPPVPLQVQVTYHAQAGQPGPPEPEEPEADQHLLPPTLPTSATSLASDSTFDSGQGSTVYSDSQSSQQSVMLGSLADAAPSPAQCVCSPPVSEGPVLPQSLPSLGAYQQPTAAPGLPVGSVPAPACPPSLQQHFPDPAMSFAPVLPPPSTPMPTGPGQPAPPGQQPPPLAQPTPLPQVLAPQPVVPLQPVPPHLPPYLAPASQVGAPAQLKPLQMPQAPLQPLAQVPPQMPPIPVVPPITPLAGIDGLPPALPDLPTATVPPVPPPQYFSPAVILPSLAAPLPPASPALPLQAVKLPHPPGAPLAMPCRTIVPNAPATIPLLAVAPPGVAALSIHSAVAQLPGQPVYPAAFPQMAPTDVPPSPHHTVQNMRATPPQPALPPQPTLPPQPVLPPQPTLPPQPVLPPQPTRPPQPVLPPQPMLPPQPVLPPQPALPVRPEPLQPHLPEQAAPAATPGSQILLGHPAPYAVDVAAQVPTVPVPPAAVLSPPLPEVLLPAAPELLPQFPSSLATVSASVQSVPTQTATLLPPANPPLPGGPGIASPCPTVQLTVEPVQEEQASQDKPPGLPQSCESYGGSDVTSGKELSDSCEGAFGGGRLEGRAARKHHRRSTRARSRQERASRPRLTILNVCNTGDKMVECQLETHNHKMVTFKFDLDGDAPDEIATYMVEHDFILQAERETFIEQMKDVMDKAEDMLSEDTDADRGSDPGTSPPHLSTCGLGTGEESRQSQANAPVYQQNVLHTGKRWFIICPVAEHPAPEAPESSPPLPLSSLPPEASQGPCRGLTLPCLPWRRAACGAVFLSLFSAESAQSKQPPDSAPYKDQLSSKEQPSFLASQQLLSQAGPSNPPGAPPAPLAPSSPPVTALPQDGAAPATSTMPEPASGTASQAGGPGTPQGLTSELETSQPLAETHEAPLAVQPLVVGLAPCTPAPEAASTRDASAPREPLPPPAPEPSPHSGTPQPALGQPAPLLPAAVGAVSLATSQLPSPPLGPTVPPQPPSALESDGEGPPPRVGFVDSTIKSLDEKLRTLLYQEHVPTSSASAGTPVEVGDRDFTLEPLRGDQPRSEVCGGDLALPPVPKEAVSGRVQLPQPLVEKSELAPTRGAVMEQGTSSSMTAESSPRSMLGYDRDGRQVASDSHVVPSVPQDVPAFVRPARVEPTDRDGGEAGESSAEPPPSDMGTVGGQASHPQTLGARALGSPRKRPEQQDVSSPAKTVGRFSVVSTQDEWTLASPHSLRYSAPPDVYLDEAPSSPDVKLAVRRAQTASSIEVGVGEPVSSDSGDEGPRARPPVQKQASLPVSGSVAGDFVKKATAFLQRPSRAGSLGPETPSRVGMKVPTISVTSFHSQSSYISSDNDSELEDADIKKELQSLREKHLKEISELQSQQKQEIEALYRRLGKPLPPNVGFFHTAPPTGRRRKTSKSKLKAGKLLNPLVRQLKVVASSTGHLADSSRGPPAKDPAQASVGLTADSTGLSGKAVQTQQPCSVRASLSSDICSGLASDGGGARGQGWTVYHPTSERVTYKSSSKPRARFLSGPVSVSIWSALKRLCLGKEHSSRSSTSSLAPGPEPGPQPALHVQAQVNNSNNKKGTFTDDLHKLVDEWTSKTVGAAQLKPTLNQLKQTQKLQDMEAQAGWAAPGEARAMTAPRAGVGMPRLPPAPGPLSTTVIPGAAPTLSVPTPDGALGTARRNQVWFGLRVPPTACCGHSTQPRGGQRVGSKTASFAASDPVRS

Chain of Glycogen synthase kinase-3 alpha (P49840 2-483 limits assumed): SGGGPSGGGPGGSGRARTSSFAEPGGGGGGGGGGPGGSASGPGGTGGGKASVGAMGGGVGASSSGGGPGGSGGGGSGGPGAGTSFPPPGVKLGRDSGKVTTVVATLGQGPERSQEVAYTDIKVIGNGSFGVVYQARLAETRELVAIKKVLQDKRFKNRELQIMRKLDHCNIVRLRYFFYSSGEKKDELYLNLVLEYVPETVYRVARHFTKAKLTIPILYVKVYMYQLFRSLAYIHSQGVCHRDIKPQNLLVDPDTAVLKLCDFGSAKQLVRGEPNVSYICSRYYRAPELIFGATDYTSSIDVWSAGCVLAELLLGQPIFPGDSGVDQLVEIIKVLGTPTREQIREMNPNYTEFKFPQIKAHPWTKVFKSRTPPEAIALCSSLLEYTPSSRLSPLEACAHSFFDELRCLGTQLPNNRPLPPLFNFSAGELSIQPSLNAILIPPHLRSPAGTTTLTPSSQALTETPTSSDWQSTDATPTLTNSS

% of inhibition [1]: 90.6%
SMILES: Cn1cc(-n2cnc3c(NCc4nc5cc(Cl)c(Cl)cc5[nH]4)nc(N4CCOCC4)nc32)cn1

dTM [2]: < 2 K
SMILES: CN(C)CCCOc1ccc(-c2cc(NCCCn3cccn3)nc(S(C)(=O)=O)n2)cc1

SMILES: CNC(=O)Nc1ccc(-c2nc(N3CC4CCC(C3)O4)c3cnn(C4CCC5(CC4)OCCO5)c3n2)cc1
% of control [3]: 96%

% of inhibition ([4]; at 0.01 µM): 3.3%
% of inhibition ([4]; at 0.04 µM): 16.7%
% of inhibition ([4]; at 0.2 µM): 6.9%
% of inhibition ([4]; at 1 µM): 25.1%
% of inhibition ([4]; at 5 µM): 56.2%
% of inhibition [5]: -3.6%
SMILES: CC[C@@H]1[C@H](F)C(=O)N[C@@H]1COc1nccc2cc(C(N)=O)c(OC)cc12 [ZIMLOVISERTIB]

SMILES: COCC(=O)NC/C=C/c1ccc2ncnc(Nc3ccc(Oc4ccc(C)nc4)c(C)c3)c2c1 [CP-724714]
% of control [6]: 100%

SMILES: COc1cc(Nc2nc(C)cc(-c3cnn4nc(OC)ccc34)n2)cc(C(F)(F)F)c1
% of control [7]: 78%

SMILES: CN(C)C/C=C/C(=O)Nc1ccc(C(=O)N2CCCC(Nc3ncc(Cl)c(-c4c[nH]c5ccccc45)n3)C2)cc1 (centres undefined)
% of control [8]: 100%

SMILES: O[C@H]1CC[C@H](Nc2ncc3nc(Nc4c(F)cc(F)cc4F)n([C@H]4CCOC4)c3n2)CC1
% of control [9]: 61%

SMILES: N#Cc1cccc(-c2c[nH]c3ncnc(N4CCOCC4)c23)c1
% of inhibition [10]: -1%
